Results as given in patent publication US20100119599A1 (ARCHER PHARMACEUTICALS, INC., priority 2006, published 2010).
Structures can show the parent of a compound that is named as a salt. Where two headings read alike, the source gives them in different places.

Legend:
Aβ1-42 = assay: Measurement of Aβ1-42 in culture medium of 7W WT APP751 CHO cells by ELISA; type: cell-based, Chinese hamster; conditions: for activity at 5 µM: Cricetulus griseus, 5 μM test compound, CHO cells stably transfected with human APP751, culture medium, ELISA, control DMSO;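 as to Aβ1-42 (% of control): 5 µM test compound but RI-coded compounds at 10 µM for 24 hours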
Aβ1-40 = assay: Measurement of Aβ1-40 in culture medium of 7W WT APP751 CHO cells by ELISA; type: cell-based, Chinese hamster; conditions: for activity at 5 µM: Cricetulus griseus, 5 μM test compound, CHO cells stably transfected with human APP751, culture medium, ELISA, control DMSO;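 as to all read-outs here: 5 µM test compound but RI-coded compounds at 10 µM for 24 hours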
[1] = CHO cells that overexpress APP751, zero = below the detection limit of the assay
[2] = Table 1, 0 = no detectable amount, read-out: Aβ1-42 (% of control)
[3] = Table 1, 0 = no detectable amount

Row | SMILES | activity at 5 µM (Aβ1-42; [2]) [%] | activity at 5 µM (Aβ1-40; [3]) [%] | further results
1 | N#CC1=C(N)N(Cc2ccccc2)C2=C(COC/C2=C/c2cccnc2)C1c1cccnc1 (stereo not drawn) [ST014245, 2-amino-1-benzyl-4-(3-pyridyl)-8-(3-pyridylmethylene)-1,4,7-trihydro-5H-pyrano[4,3-b]pyridine-3-carbonitrile] | – | – | Aβ1-42 (% of control) (Aβ1-42; [1]): 53.59 % of control; Aβ1-40 (% of control) (Aβ1-40; [1]): 75.44 % of control
2 | N#Cc1c(S)[nH]c(C(F)(F)F)cc1=O [ST014350, 4-oxo-2-sulfanyl-6-(trifluoromethyl)hydropyridine-3-carbonitrile, 4-methylmorpholine salt] | – | – | activity at 5 µM (Aβ1-42; Table 3, read-out: Aβ-42 (% of control)): 46.1%; activity at 5 µM (Aβ1-40; Table 3): 81.8%
3 | CCN(CC)c1ccc(C2C(C(=O)OC(C)C)=C(C)NC3=C2C(=O)CC(c2ccccc2)C3)cc1 (stereo not drawn) [ST014875, methylethyl 4-[4-(diethylamino)phenyl]-2-methyl-5-oxo-7-phenyl-1,4,6,7,8-pentahydroquinoline-3-carboxylate] | 95.7 | 54.2 | –
4 | CC1=C(C(=O)OCc2ccccc2)C(c2ccccc2C(F)(F)F)C2=C(CC(C)(C)CC2=O)N1 (stereo not drawn) [ST014881, phenylmethyl 2,7,7-trimethyl-5-oxo-4-[2-(trifluoromethyl)phenyl]-1,4,6,7,8-pentahydroquinoline-3-carboxylate] | 49.9 | 0 | –
5 | CC1=C(C(=O)OC2CCCCC2)C(c2ccccc2C(F)(F)F)C2=C(CCCC2=O)N1 (stereo not drawn) [ST014882, cyclohexyl 2-methyl-5-oxo-4-[2-(trifluoromethyl)phenyl]-1,4,6,7,8-pentahydroquinoline-3-carboxylate] | 91.8 | 39.5 | –
6 | CC1=C(C(=O)OCCc2ccccc2)C(c2ccc(Cl)cc2Cl)C2=C(CCCC2=O)N1 (stereo not drawn) [ST014884, 2-phenylethyl 4-(2,4-dichlorophenyl)-2-methyl-5-oxo-1,4,6,7,8-pentahydroquinoline-3-carboxylate] | 52.8 | 62 | –
7 | CC1=C(C(=O)OCCc2ccccc2)C(c2cc3c(cc2Br)OCO3)C2=C(CC(C)(C)CC2=O)N1 (stereo not drawn) [ST014885, 2-phenylethyl 4-(6-bromo(2H-benzo[d]1,3-dioxolen-5-yl))-2,7,7-trimethyl-5-oxo-1,4,6,7,8-pentahydroquinoline-3-carboxylate] | 87.5 | 39.5 | –
8 | CCc1ccc(C2C(C(=O)OCCOc3ccccc3)=C(C)NC3=C2C(=O)CC(C)(C)C3)cc1 (stereo not drawn) [ST014886, 2-phenoxyethyl 4-(4-ethylphenyl)-2,7,7-trimethyl-5-oxo-1,4,6,7,8-pentahydroquinoline-3-carboxylate] | 65.1 | 21.6 | –
9 | CC1=C(C(=O)OCCOc2ccccc2)C(c2ccc(Br)cc2)C2=C(CCCC2=O)N1 (stereo not drawn) [ST014890, 2-phenoxyethyl 4-(4-bromophenyl)-2-methyl-5-oxo-1,4,6,7,8-pentahydroquinoline-3-carboxylate] | 67.5 | 13.2 | –
10 | CC1=C(C(=O)OCCOc2ccccc2)C(c2ccc(F)cc2)C2=C(CCCC2=O)N1 (stereo not drawn) [ST014891, 2-phenoxyethyl 4-(4-fluorophenyl)-2-methyl-5-oxo-1,4,6,7,8-pentahydroquinoline-3-carboxylate] | 39.3 | 51.8 | –
11 | CC1=C(C(=O)OCCOc2ccccc2)C(c2ccc(OCc3ccccc3)cc2)C2=C(CCCC2=O)N1 (stereo not drawn) [ST014899, 2-phenoxyethyl 2-methyl-5-oxo-4-[4-(phenylmethoxy)phenyl]-1,4,6,7,8-pentahydroquinoline-3-carboxylate] | 65.5 | 55.6 | –
12 | CCCCOc1ccccc1C1C(C(=O)OCCc2ccccc2)=C(C)NC2=C1C(=O)CC(C)(C)C2 (stereo not drawn) [ST014907, 2-phenylethyl 4-(2-butoxyphenyl)-2,7,7-trimethyl-5-oxo-1,4,6,7,8-pentahydroquinoline-3-carboxylate] | 83.5 | 34.6 | –
13 | CC1=C(C(=O)OCCOc2ccccc2)C(c2ccccc2OC(C)C)C2=C(CCCC2=O)N1 (stereo not drawn) [ST014919, 2-phenoxyethyl 2-methyl-4-[2-(methylethoxy)phenyl]-5-oxo-1,4,6,7,8-pentahydroquinoline-3-carboxylate] | 85.1 | 63.4 | –
14 | CC1=C(C(=O)OCCc2ccccc2)C(c2ccc([N+](=O)[O-])cc2)C2=C(CC(C)(C)CC2=O)N1 (stereo not drawn) [ST014923, 2-phenylethyl 2,7,7-trimethyl-4-(4-nitrophenyl)-5-oxo-1,4,6,7,8-pentahydroquinoline-3-carboxylate] | 28.4 | 0 | –
15 | CCCOc1ccccc1C1C(C(=O)OCc2ccccc2)=C(C)NC2=C1C(=O)CCC2 (stereo not drawn) [ST014957, phenylmethyl 2-methyl-5-oxo-4-(2-propoxyphenyl)-1,4,6,7,8-pentahydroquinoline-3-carboxylate] | 62.8 | 0 | –
16 | CCCOC(=O)C1=C(C)NC2=C(C(=O)CCC2)C1c1cccc(O)c1 (stereo not drawn) [ST014959, propyl 4-(3-hydroxyphenyl)-2-methyl-5-oxo-1,4,6,7,8-pentahydroquinoline-3-carboxylate] | 70.2 | 64 | –
17 | C=CCOC(=O)C1=C(C)NC2=C(C(=O)CCC2)C1c1ccc(OC)c(OC)c1OC (stereo not drawn) [ST014969, prop-2-enyl 2-methyl-5-oxo-4-(2,3,4-trimethoxyphenyl)-1,4,6,7,8-pentahydroquinoline-3-carboxylate] | 83.3 | 39.7 | –
18 | CCc1ccc(C2C(C(=O)OCc3ccccc3)=C(C)NC3=C2C(=O)CCC3)cc1 (stereo not drawn) [ST015031, phenylmethyl 4-(4-ethylphenyl)-2-methyl-5-oxo-1,4,6,7,8-pentahydroquinoline-3-carboxylate] | 71.3 | 33.1 | –
19 | CCOc1cc(C2C(C(=O)OC(C)C)=C(C)NC3=C2C(=O)CCC3)ccc1O (stereo not drawn) [ST015043, methylethyl 4-(3-ethoxy-4-hydroxyphenyl)-2-methyl-5-oxo-1,4,6,7,8-pentahydroquinoline-3-carboxylate] | 68.8 | 95.9 | –
20 | CCCOc1ccccc1C1C(C(=O)OCCc2ccccc2)=C(C)NC2=C1C(=O)CC(C)(C)C2 (stereo not drawn) [ST015048, 2-phenylethyl 2,7,7-trimethyl-5-oxo-4-(2-propoxyphenyl)-1,4,6,7,8-pentahydroquinoline-3-carboxylate] | 88.7 | 37.9 | –
21 | CC1=C(C(=O)OCCc2ccccc2)C(c2ccccc2OC(C)C)C2=C(CC(C)(C)CC2=O)N1 (stereo not drawn) [ST015049, 2-phenylethyl 2,7,7-trimethyl-4-[2-(methylethoxy)phenyl]-5-oxo-1,4,6,7,8-pentahydroquinoline-3-carboxylate] | 62.4 | 0 | –
22 | CC1=C(C(=O)OCCc2ccccc2)C(c2ccccc2)C2=C(CC(C)(C)CC2=O)N1 (stereo not drawn) [ST015054, 2-phenylethyl 2,7,7-trimethyl-5-oxo-4-phenyl-1,4,6,7,8-pentahydroquinoline-3-carboxylate] | 44.2 | 29.9 | –
23 | CC1=C(C(=O)OCCOc2ccccc2)C(c2cccc(Oc3ccccc3)c2)C2=C(CC(C)(C)CC2=O)N1 (stereo not drawn) [ST015055, 2-phenoxyethyl 2,7,7-trimethyl-5-oxo-4-(3-phenoxyphenyl)-1,4,6,7,8-pentahydroquinoline-3-carboxylate] | 78.2 | 13.6 | –
24 | CCCOc1ccccc1C1C(C(=O)OCCc2ccccc2)=C(C)NC2=C1C(=O)CCC2 (stereo not drawn) [ST015060, 2-phenylethyl 2-methyl-5-oxo-4-(2-propoxyphenyl)-1,4,6,7,8-pentahydroquinoline-3-carboxylate] | 0 | 0 | –
25 | CCOc1cc(C2C(C(=O)OCCc3ccccc3)=C(C)NC3=C2C(=O)CCC3)cc(Br)c1O (stereo not drawn) [ST015061, 2-phenylethyl 4-(3-bromo-5-ethoxy-4-hydroxyphenyl)-2-methyl-5-oxo-1,4,6,7,8-pentahydroquinoline-3-carboxylate] | 33.5 | 40.8 | –
26 | CC1=C(C(=O)OCCc2ccccc2)C(c2cccc(Cl)c2Cl)C2=C(CCCC2=O)N1 (stereo not drawn) [ST015062, 2-phenylethyl 4-(2,3-dichlorophenyl)-2-methyl-5-oxo-1,4,6,7,8-pentahydroquinoline-3-carboxylate] | 20.8 | 30.6 | –
27 | CC1=C(C(=O)OCCOc2ccccc2)C(c2ccc(Cl)cc2Cl)C2=C(CC(C)(C)CC2=O)N1 (stereo not drawn) [ST015067, 2-phenoxyethyl 4-(2,4-dichlorophenyl)-2,7,7-trimethyl-5-oxo-1,4,6,7,8-pentahydroquinoline-3-carboxylate] | 43.9 | 4.89 | –
28 | CCOC(=O)C1=C(C)NC2=C(C(=O)CC(c3ccc(Cl)cc3)C2)C1c1cccc(Cl)c1Cl (stereo not drawn) [ST015068, ethyl 4-(2,3-dichlorophenyl)-7-(4-chlorophenyl)-2-methyl-5-oxo-1,4,6,7,8-pentahydroquinoline-3-carboxylate] | 83.8 | 46.3 | –
29 | COC(=O)C1=C(C)NC2=C(C(=O)CC(c3ccccc3Cl)C2)C1c1cccc([N+](=O)[O-])c1 (stereo not drawn) [ST015070, methyl 7-(2-chlorophenyl)-2-methyl-4-(3-nitrophenyl)-5-oxo-1,4,6,7,8-pentahydroquinoline-3-carboxylate] | 97 | 65.4 | –
30 | COc1cc(C2C(C(=O)OCCOc3ccccc3)=C(C)NC3=C2C(=O)CC(C)(C)C3)ccc1OCc1ccccc1 (stereo not drawn) [ST015071, 2-phenoxyethyl 4-[3-methoxy-4-(phenylmethoxy)phenyl]-2,7,7-trimethyl-5-oxo-1,4,6,7,8-pentahydroquinoline-3-carboxylate] | 88.3 | 60.8 | –
